Patent US5945404A, “21-Substituted steroid compound” (priority 1993, dated 1999)
Like-named read-outs stand apart in the source and are kept apart here.

Legend:
granuloma = test: Inhibitory Effects on Granuloma Growth (Paper Disk Method); type: in vivo, male Sprague-Dawley rats; settings: Rattus norvegicus, topical, 168 h, rat, paper disk; ointment 0.1%, 50 mg once a day, 7 days; read-out: Weight of granuloma, per cent of change of the controls
Method: Ointment to be tested was prepared usign white soft paraffin as the base and containing dexamethasone at 0.1% concentration.
Groups of 5 male Sprague-Dawley rats each weighing 150-170 g were used. Under ether anesthesia, the dorsum of animals was closely clipped, and medianly incised. After each one pre-weighed paper disk (8-mm diameter, 1-mm thick, weighing about 30 mg; Toyo-Roshi filter paper) was inserted subcutaneously into both sides of the dorsal incision, the incision was sutured. In order to prevent bacterial infection, penicillin G potassium salt (2,000 units) per rat was intramascularly injected after the surgery. Base or ointment to be tested (50 mg each) was rubbed carefully into the skin over the paper disk inserted site, for 30 seconds once a day for the duration of 7 days. Rats were slipped plastic cangs on to prevent them from licking the drug applied sites. On the 8th day of the test, rats were sacrificed under ether anesthesia, and granulomas were carefully excised. Granulomas were dried at 40° C. for 24 h, and their dry weights were recorded.
Inhibitory effects of dexamethasone derivatives on the weight increase of granuloma of experimental animals as compared with those of control animals are shown as per cent of inhibition ov er the control in Table 1. Figures wihth asterisks in the table indicate signfiicant difference. The same will be applied to the following other tables.

[1] = tested on: croton oil-induced granuloma; test: Croton Oil-induced Granuloma (granuloma pouch); type: in vivo, male Sprague-Dawley rats; settings: Rattus norvegicus, 168 h, 7 days; for inhibition in vivo at 0.01 mg: 0.01 mg/rat; for inhibition in vivo at 0.1 mg: 0.1 mg/rat; for inhibition in vivo at 1 mg: 1.0 mg/rat
Method: Groups of 5 male Sprague-Dawley rats each weighing 160-180 g were used. Under ether anesthesia, the dorsum of animals was closely clipped, and air sac was formed by injecting air (20 ml) subcutaneously. Next day cotton seed oil containing 1% croton oil was injected into the air sac. Drugs to be tested were suspended in the cotton seed oil containing 1% croton oil, and administered. After 7 days, the blood was taken from the animal under ether anesthesia. Then, the granuloma pouch fluid (exudate) was collected, and the fluid volume was measured. The pouch wall formed around granuloma and thymus were also excised and weighed.

[2] = read-out: Effects on granuloma weight, per cent of inhibition over the control
[3] = read-out: Effects on pouch fluid (exudate) volume, per cent of inhibition over the control

Q: How did the change in vivo at 0.1 %, 50 mg (granuloma) turn out when `Cc1ccc(C(=O)OC[C@H]2O[C@@H](OCC(=O)[C@H]3[C@H](C)C[C@H]4[C@@H]5C[C@H](F)C6=CC(=O)C=C[C@]6(C)[C@@]5(F)[C@@H](O)C[C@@]43C)[C@H](OC(=O)c3ccc(C)cc3)[C@@H](OC(=O)c3ccc(C)cc3)[C@@H]2OC(=O)c2ccc(C)cc2)cc1` [Compound 109β, Glucosyldiflucortolone (p-toluoyl derivative)] was run?
A: The change in vivo at 0.1 %, 50 mg was -0.2 ± 3.7%.

Q: For `Cc1ccc(C(=O)OC[C@H]2O[C@H](OCC(=O)[C@@]3(O)[C@H](C)C[C@H]4[C@@H]5CCC6=CC(=O)C=C[C@]6(C)[C@@]5(F)[C@@H](O)C[C@@]43C)[C@H](OC(=O)c3ccc(C)cc3)[C@@H](OC(=O)c3ccc(C)cc3)[C@H]2OC(=O)c2ccc(C)cc2)cc1` [Compound 14α], which change in vivo at 0.1 %, 50 mg (granuloma) is on record?
A: The change in vivo at 0.1 %, 50 mg was 5.7 ± 1.9%.

Q: For `COC(=O)[C@H]1O[C@@H](OCC(=O)[C@@]2(O)[C@H](C)C[C@H]3[C@@H]4CCC5=CC(=O)C=C[C@]5(C)[C@@]4(F)[C@@H](O)C[C@@]32C)[C@H](OC(=O)c2ccc(C)cc2)[C@@H](OC(=O)c2ccc(C)cc2)[C@@H]1OC(=O)c1ccc(C)cc1` [Compound 59β], which change in vivo at 0.1 %, 50 mg (granuloma) is on record?
A: The change in vivo at 0.1 %, 50 mg was -7.7 ± 6.8%.

Q: With `Cc1ccc(C(=O)OC[C@H]2O[C@@H](OCC(=O)[C@@]3(O)[C@H](C)C[C@H]4[C@@H]5CCC6=CC(=O)C=C[C@]6(C)[C@@]5(F)[C@@H](O)C[C@@]43C)[C@H](OC(=O)c3ccc(C)cc3)[C@@H](OC(=O)c3ccc(C)cc3)[C@@H]2OC(=O)c2ccc(C)cc2)cc1` [Compound 4β] as the compound, how does the change in vivo at 0.1 %, 50 mg (granuloma) read?
A: The change in vivo at 0.1 %, 50 mg was -7.9 ± 5%.

Q: For `CC(=O)N[C@H]1[C@H](OCC(=O)[C@@]2(O)[C@H](C)C[C@H]3[C@@H]4CCC5=CC(=O)C=C[C@]5(C)[C@@]4(F)[C@@H](O)C[C@@]32C)O[C@H](COC(C)=O)[C@H](OC(C)=O)[C@@H]1OC(C)=O` [Compound 44β], which change in vivo at 0.1 %, 50 mg (granuloma) is on record?
A: Its change in vivo at 0.1 %, 50 mg is -16.5 ± 3%.

Q: Which change in vivo at 0.1 %, 50 mg (granuloma) does the source give for `COC(=O)[C@H]1O[C@@H](OCC(=O)[C@@]2(O)[C@H](C)C[C@H]3[C@@H]4CCC5=CC(=O)C=C[C@]5(C)[C@@]4(F)[C@@H](O)C[C@@]32C)[C@H](OC(=O)c2ccc(C)cc2)[C@@H](OC(=O)c2ccc(C)cc2)[C@H]1OC(=O)c1ccc(C)cc1` [Compound 69β] here?
A: Its change in vivo at 0.1 %, 50 mg is 0.7 ± 2.4%.

Q: `C[C@@H]1C[C@H]2[C@@H]3CCC4=CC(=O)C=C[C@]4(C)[C@@]3(F)[C@@H](O)C[C@]2(C)[C@@]1(O)C(=O)CO[C@@H]1O[C@H](C(=O)O)[C@H](O)[C@H](O)[C@H]1O` [Compound 65β, β-galacturonyldexamethasone] was tested. Which change in vivo at 0.1 %, 50 mg (granuloma) did it give?
A: The change in vivo at 0.1 %, 50 mg was -33 ± 3.3%.

Q: Which change in vivo at 0.1 %, 50 mg (granuloma) does the source give for `Cc1ccc(C(=O)OC[C@H]2O[C@@H](OCC(=O)[C@@]3(O)[C@H](C)C[C@H]4[C@@H]5CCC6=CC(=O)C=C[C@]6(C)[C@@]5(F)[C@@H](O)C[C@@]43C)[C@H](OC(=O)c3ccc(C)cc3)[C@@H](OC(=O)c3ccc(C)cc3)[C@H]2OC(=O)c2ccc(C)cc2)cc1` [Compound 14β] here?
A: The change in vivo at 0.1 %, 50 mg was -8.7 ± 7.2%.

Q: With `COC(=O)[C@H]1O[C@@H](OCC(=O)[C@@]2(O)[C@H](C)C[C@H]3[C@@H]4CCC5=CC(=O)C=C[C@]5(C)[C@@]4(F)[C@@H](O)C[C@@]32C)[C@H](OC(C)=O)[C@@H](OC(C)=O)[C@@H]1OC(C)=O` [Compound 54β] as the compound, how does the change in vivo at 0.1 %, 50 mg (granuloma) read?
A: Its change in vivo at 0.1 %, 50 mg is -35.1 ± 2.8%.

Q: How did the change in vivo at 0.1 %, 50 mg (granuloma) turn out when `CC(=O)N[C@H]1[C@H](OCC(=O)[C@@]2(O)[C@H](C)C[C@H]3[C@@H]4CCC5=CC(=O)C=C[C@]5(C)[C@@]4(F)[C@@H](O)C[C@@]32C)O[C@H](COC(C)=O)[C@@H](OC(C)=O)[C@@H]1OC(C)=O` [Compound 34β, N-acetylglucosaminyldexamethasone] was run?
A: The change in vivo at 0.1 %, 50 mg was -21.3 ± 3.9%.

Q: With `COC(=O)[C@H]1O[C@@H]2OC(C)(OCC(=O)[C@@]3(O)[C@H](C)C[C@H]4[C@@H]5CCC6=CC(=O)C=C[C@]6(C)[C@@]5(F)[C@@H](O)C[C@@]43C)O[C@@H]2[C@@H](OC(C)=O)[C@H]1OC(C)=O` (stereo partly drawn) [Compound 64'] as the compound, how does the change in vivo at 0.1 %, 50 mg (granuloma) read?
A: Its change in vivo at 0.1 %, 50 mg is -41.3 ± 2.3%.

Q: For `Cc1ccc(C(=O)OC[C@H]2O[C@H](OCC(=O)[C@@]3(O)[C@H](C)C[C@H]4[C@@H]5CCC6=CC(=O)C=C[C@]6(C)[C@@]5(F)[C@@H](O)C[C@@]43C)[C@H](OC(=O)c3ccc(C)cc3)[C@@H](OC(=O)c3ccc(C)cc3)[C@@H]2OC(=O)c2ccc(C)cc2)cc1` [Compound 4α], which change in vivo at 0.1 %, 50 mg (granuloma) is on record?
A: The change in vivo at 0.1 %, 50 mg was -0.6 ± 5.1%.

Q: `CC(=O)N[C@H]1[C@H](OCC(=O)[C@@]2(O)[C@H](C)C[C@H]3[C@@H]4CCC5=CC(=O)C=C[C@]5(C)[C@@]4(F)[C@@H](O)C[C@@]32C)O[C@H](CO)[C@@H](O)[C@@H]1O` [Compound 35β, β-N-acetylglucosaminyldexamethasone] was tested. Which change in vivo at 0.1 %, 50 mg (granuloma) did it give?
A: The change in vivo at 0.1 %, 50 mg was -21.9 ± 4.2%.

Q: `Cc1ccc(C(=O)OC[C@H]2O[C@H](OCC(=O)[C@@]3(O)[C@H](C)C[C@H]4[C@@H]5CCC6=CC(=O)C=C[C@]6(C)[C@@]5(F)[C@@H](O)C[C@@]43C)[C@@H](OC(=O)c3ccc(C)cc3)[C@@H](OC(=O)c3ccc(C)cc3)[C@@H]2OC(=O)c2ccc(C)cc2)cc1` [Compound 24α, mannosyldexamethasone] was tested. Which change in vivo at 0.1 %, 50 mg (granuloma) did it give?
A: Its change in vivo at 0.1 %, 50 mg is -3.7 ± 4.5%.

Q: How did the change in vivo at 0.1 %, 50 mg (granuloma) turn out when `C[C@@H]1C[C@H]2[C@@H]3CCC4=CC(=O)C=C[C@]4(C)[C@@]3(F)[C@@H](O)C[C@]2(C)[C@@]1(O)C(=O)CO[C@@H]1O[C@H](C(=O)O)[C@@H](O)[C@H](O)[C@H]1O` [Compound 55β, β-glucuronyldexamethasone] was run?
A: Its change in vivo at 0.1 %, 50 mg is -37.4 ± 7.1%.

Q: For `C[C@@H]1C[C@H]2[C@@H]3C[C@H](F)C4=CC(=O)C=C[C@]4(C)[C@@]3(F)[C@@H](O)C[C@]2(C)[C@H]1C(=O)CO[C@@H]1O[C@H](COC(=O)c2ccccc2)[C@@H](OC(=O)c2ccccc2)[C@H](OC(=O)c2ccccc2)[C@H]1OC(=O)c1ccccc1` [Compound 110β, glucosyldiflucortolone (benzoyl derivative)], which inhibition in vivo at 0.01 mg [1, 2] is on record?
A: Its inhibition in vivo at 0.01 mg is 16.8 ± 7.1%.

Q: What about the inhibition in vivo at 0.01 mg [1, 3] of the same compound?
A: The inhibition in vivo at 0.01 mg was 34.4 ± 8.9%.

Q: What about the inhibition in vivo at 0.1 mg [1, 2] of the same compound?
A: The inhibition in vivo at 0.1 mg was 58.7 ± 1.4%.

Q: And the inhibition in vivo at 0.1 mg [1, 3]?
A: Its inhibition in vivo at 0.1 mg is 79.6 ± 8.5%.

Q: What about the inhibition in vivo at 1 mg [1, 2] of the same compound?
A: The inhibition in vivo at 1 mg was 70.3 ± 1.9%.

Q: And the inhibition in vivo at 1 mg [1, 3]?
A: The inhibition in vivo at 1 mg was 97.2 ± 0.5%.

Q: With `COC(=O)[C@H]1O[C@@H]2OC(C)(OCC(=O)[C@@]3(O)[C@H](C)C[C@H]4[C@@H]5CCC6=CC(=O)C=C[C@]6(C)[C@@]5(F)[C@@H](O)C[C@@]43C)O[C@@H]2[C@@H](OC(C)=O)[C@@H]1OC(C)=O` (stereo partly drawn) [Compound 54'] as the compound, how does the change in vivo at 0.1 %, 50 mg (granuloma) read?
A: Its change in vivo at 0.1 %, 50 mg is -44.8 ± 2.4%.

Q: With `COC(=O)[C@H]1O[C@@H](OCC(=O)[C@@]2(O)[C@H](C)C[C@H]3[C@@H]4CCC5=CC(=O)C=C[C@]5(C)[C@@]4(F)[C@@H](O)C[C@@]32C)[C@H](OC(C)=O)[C@@H](OC(C)=O)[C@H]1OC(C)=O` [Compound 64β] as the compound, how does the change in vivo at 0.1 %, 50 mg (granuloma) read?
A: The change in vivo at 0.1 %, 50 mg was -32.5 ± 0.5%.

Q: `CC(=O)N[C@H]1[C@H](OCC(=O)[C@@]2(O)[C@H](C)C[C@H]3[C@@H]4CCC5=CC(=O)C=C[C@]5(C)[C@@]4(F)[C@@H](O)C[C@@]32C)O[C@H](CO)[C@H](O)[C@@H]1O` [Compound 45β, N-acetylgalactosaminyldexamethasone] was tested. Which change in vivo at 0.1 %, 50 mg (granuloma) did it give?
A: The change in vivo at 0.1 %, 50 mg was -28.1 ± 3.5%.

Q: What does the source list for `C[C@@H]1C[C@H]2[C@@H]3C[C@H](F)C4=CC(=O)C=C[C@]4(C)[C@@]3(F)[C@@H](O)C[C@]2(C)[C@H]1C(=O)CO[C@@H]1O[C@H](COC(=O)c2ccc(Cl)cc2)[C@@H](OC(=O)c2ccc(Cl)cc2)[C@H](OC(=O)c2ccc(Cl)cc2)[C@H]1OC(=O)c1ccc(Cl)cc1` [Compound 112β, glucosyldiflucortolone (p-chlorobenzoyl derivative)]?
A: inhibition in vivo at 0.01 mg [1, 2]: 15.9 ± 6.9%; inhibition in vivo at 0.01 mg [1, 3]: 36.1 ± 9.2%; inhibition in vivo at 0.1 mg [1, 2]: 27.1 ± 2.4%; inhibition in vivo at 0.1 mg [1, 3]: 43.7 ± 2.5%; inhibition in vivo at 1 mg [1, 2]: 61.3 ± 2.2%; inhibition in vivo at 1 mg [1, 3]: 93.1 ± 1.6%
